Earlier results in US20040028613A1, “Dopamine agonist formulations for enhanced central nervous system delivery” (Nastech Pharmaceutical Company Inc, priority 2001, published 2004).

Assays:
[1] = test system: ciliary movement of human adenoid tissue; details: for time in which ciliary movement was inhibited / inhibitory effect on ciliary movement at the end of 60 mm: 0.3%
[2] = test system: ciliary function in epithelial cell cultures
[3] = intraduodenal, rats, with 1% (w/v) saline dispersion of polycarbophil
[4] = subcutaneous injection
[5] = aqueous solution, physiologic pH
[6] = 2.5 mg to 3.5 mg, hypotension, nausea, vomiting, impaired vision, diaphoresis, ashen coloring

Laureth-9
time in which ciliary movement was inhibited [1]: 10 mm

2-alkyl-4-hydroxyquinolines [pyo compound]
concentration producing ciliostasis / inhibiting ciliary motility [2]: 50 µg/mL

9-desglycinamide, 8-arginine vasopressin
increase of bioavailability compared to aqueous solution without polymer [3]: 3-5 fold

CN1CCc2cccc3c2[C@H]1Cc1ccc(O)c(O)c1-3 [SC Inj (ref. 1), apomorphine]
CSF level at 20 min ([4]; prior art, patients): 1.08 ng/mL
Plasma level at 20 min ([4]; prior art, patients): 0.02504 µg/mL

C[C@H](CCC(=O)NCCS(=O)(=O)O)[C@H]1CC[C@H]2[C@@H]3[C@H](O)C[C@@H]4C[C@H](O)CC[C@]4(C)[C@H]3C[C@H](O)[C@]12C [taurocholate, taurocholic acid]
inhibitory effect on ciliary movement at the end of 60 mm [1]: no inhibitory effect

CC(=O)OC1CC2(C)C(CC(O)C3C4(C)CCC(O)C(C)C4CCC32C)C1=C(CCCC(C)C)C(=O)NCCS(=O)(=O)O (stereo not drawn) [STDHF, sodium taurodihydrofusidate]
inhibition of ciliary movement ([1]; concentration of 0.3%, at 60 minutes): total

CCN(CC)/[N+]([O-])=N/O.CCNCC [diethylamine/NO]
rate (time) of NO release [5]: < 3 min

C[C@H](CCC(=O)NCC(=O)O)[C@H]1CC[C@H]2[C@@H]3[C@H](O)C[C@@H]4C[C@H](O)CC[C@]4(C)[C@H]3C[C@H](O)[C@]12C [glycocholate, glycocholic acid]
inhibitory effect on ciliary movement at the end of 60 mm [1]: no inhibitory effect

NCCN(CCN)/[N+]([O-])=N/O [diethylenetriamine/NO (DETANO)]
rate (time) of NO release [5]: approximately 20 hours

CN1CCc2cccc3c2[C@H]1Cc1ccc(O)c(O)c1-3 [apomorphine]
CSF levels of active drug as percentage of levels found in the plasma [4]: less than 5%
side effects of intranasal delivery [6]: extensive and serious side effects

CC(C)CC(N)B(O)O (stereo not drawn) [boro-leucine]
effectiveness in enzyme inhibition relative to bestatin (aminopeptidases): more than 100 times
effectiveness in enzyme inhibition relative to puromycin (aminopeptidases): more than 1000 times

C[C@H](CCC(=O)O)[C@H]1CC[C@H]2[C@@H]3CC[C@@H]4C[C@H](O)CC[C@]4(C)[C@H]3C[C@H](O)[C@]12C [deoxycholate, deoxycholic acid]
time in which ciliary movement was inhibited [1]: 20 mm
